The record followed here is US12139520B2 (priority 2020, dated 2024).

Bridge positions count the residues as written; N and C are the ends. Square brackets hold non-standard residues; d marks the D form. Peptide text beside a SMILES is read from it. Hyp = O=C(O)[C@@H]1C[C@@H](O)CN1; Cit = NC(=O)NCCC[C@H](N)C(=O)O

For one series, the target named is T1, hAMY3 receptor (Homo sapiens, UniProt O60896+P30988).
T1 sequence (P30988 25-474): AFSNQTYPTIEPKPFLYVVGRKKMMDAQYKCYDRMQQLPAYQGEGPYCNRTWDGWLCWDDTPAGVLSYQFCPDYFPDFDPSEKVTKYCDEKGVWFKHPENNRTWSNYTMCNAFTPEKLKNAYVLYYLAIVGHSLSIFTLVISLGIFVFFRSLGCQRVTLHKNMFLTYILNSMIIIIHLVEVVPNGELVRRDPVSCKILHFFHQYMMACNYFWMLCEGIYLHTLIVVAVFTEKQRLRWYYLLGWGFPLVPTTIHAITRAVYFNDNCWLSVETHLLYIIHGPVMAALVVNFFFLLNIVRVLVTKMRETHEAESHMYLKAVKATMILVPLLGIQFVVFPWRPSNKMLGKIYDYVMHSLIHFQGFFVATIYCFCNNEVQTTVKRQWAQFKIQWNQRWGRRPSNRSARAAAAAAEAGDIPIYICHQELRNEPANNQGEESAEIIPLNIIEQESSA
T1 sequence (O60896 24-148 partner): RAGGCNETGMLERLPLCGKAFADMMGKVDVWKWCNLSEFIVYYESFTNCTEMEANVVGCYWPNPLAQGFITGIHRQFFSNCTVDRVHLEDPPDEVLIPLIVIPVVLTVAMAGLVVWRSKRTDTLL
Description: cAMP assay for in vitro receptor activation, hAMY3-R. The format is cell-based. Conditions: cAMP assay, hAMY3 receptor; read-out: hAMY3R EC50. In a few lines:
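Thawed cells from a sub-cloned monoclonal hAMY3-overexpressing line are plated in DPBS containing 0.05% casein and 0.5 mM IBMX. Test compounds are added immediately at graded doses for 30 min at room temperature. Reagents for cAMP detection are then added, and TR-FRET is recorded after one hour.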
(cAMP levels reflect the balance of adenylyl cyclase and phosphodiesterase activity.)

For another series, the target named is hAM1 receptor (Homo sapiens, UniProt O60895+Q16602). The series is described as follows: cAMP assay for in vitro receptor activation, hAM1-R. Conditions: cAMP assay, hAM1 receptor; read-out: hAM1R EC50. The format is cell-based. In a few lines: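 Read-out is intracellular cAMP as a measure of receptor activation. Cells stably overexpressing hAM1 were subcloned to a monoclonal line, then thawed and seeded at 8000 cells/well in DPBS with 0.05% casein and the phosphodiesterase inhibitor IBMX at 0.5 mM.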

A short description of series [1]: Physical stability of peptide analogues (Thioflavin T fibrillation). The format is physicochemical. Conditions: maximum ThT signal normalized between hAMY maximum and buffer background; 40° C., shaking, four days; pH 7 per table title. An outline of the steps: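 Maximum ThT emission at 480 nm, after LOESS smoothing, is given as percent of the span from buffer background to hAMY. Conditions: 50 mM buffer at pH 4 or 7, 4 μM dye, 40 °C, repeated shaking, readings every 10 min for four days.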

Sequence of hAM1 receptor (Q16602 23-461): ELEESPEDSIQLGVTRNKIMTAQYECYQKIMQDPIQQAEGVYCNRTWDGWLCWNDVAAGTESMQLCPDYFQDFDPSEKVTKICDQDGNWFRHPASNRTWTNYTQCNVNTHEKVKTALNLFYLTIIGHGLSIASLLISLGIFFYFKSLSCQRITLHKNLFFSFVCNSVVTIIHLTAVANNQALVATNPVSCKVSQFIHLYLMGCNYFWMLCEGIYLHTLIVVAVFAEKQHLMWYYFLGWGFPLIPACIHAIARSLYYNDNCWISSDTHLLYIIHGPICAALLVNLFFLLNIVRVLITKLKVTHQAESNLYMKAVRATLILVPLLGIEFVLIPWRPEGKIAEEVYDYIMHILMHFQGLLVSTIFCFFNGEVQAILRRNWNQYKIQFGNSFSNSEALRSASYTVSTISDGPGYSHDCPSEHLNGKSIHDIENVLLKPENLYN
Sequence of hAM1 receptor (O60895 43-175 partner): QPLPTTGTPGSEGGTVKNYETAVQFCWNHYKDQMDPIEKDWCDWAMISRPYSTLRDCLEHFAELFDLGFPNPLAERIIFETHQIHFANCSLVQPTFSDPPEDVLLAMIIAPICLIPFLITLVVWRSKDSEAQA

In general, EC50 refers to the concentration at which the effect is half-maximal. Turning to `CC[C@H](C)[C@H](NC(=O)[C@H](CCC(N)=O)NC(=O)[C@H](Cc1c[nH]cn1)NC(=O)[C@H](C)NC(=O)[C@H](CC(C)C)NC(=O)[C@H](CCCNC(N)=O)NC(=O)[C@H](CCC(N)=O)NC(=O)[C@@H](NC(=O)[C@@H](NC(=O)[C@@H]1CSSC[C@H](NC(=O)[C@@H](N)CCCCN)C(=O)N[C@@H](CC(N)=O)C(=O)N[C@@H]([C@@H](C)O)C(=O)N[C@@H](C)C(=O)N[C@@H]([C@@H](C)O)C(=O)N1)[C@@H](C)O)C(C)C)C(=O)N[C@@H](Cc1ccc(O)cc1)C(=O)N[C@@H](CCC(N)=O)C(=O)N[C@@H](Cc1ccccc1)C(=O)N[C@H](C(=O)N[C@@H](CCCCN)C(=O)N[C@@H](CC(=O)O)C(=O)N[C@@H](CCCCN)C(=O)N[C@@H](CC(=O)O)C(=O)N[C@@H](CC(N)=O)C(=O)N[C@H](C(=O)N[C@@H](C)C(=O)N1CCC[C@H]1C(=O)N1CCC[C@H]1C(=O)N[C@H](C(=O)N[C@@H](CC(N)=O)C(=O)N[C@H](C(=O)NCC(=O)N[C@@H](CO)C(=O)N[C@@H](CC(N)=O)C(=O)NCC(=O)N1C[C@H](O)C[C@H]1C(N)=O)C(C)C)[C@@H](C)O)C(C)C)[C@@H](C)O` [compound 253] (H-KCNTATCTVQ[Cit]LAHQIYQFTKDKDNVAPPTNVGSNG[Hyp]-NH2; disulfide 2-7; N-terminus assumed), the EC50 on hAMY3 receptor is 0.004 nM; on hAM1 receptor, over 5000 nM. The “Max ThT signal (%)” value in series [1] was 9.600%.

In the case of `CC[C@H](C)[C@H](NC(=O)[C@H](CCC(N)=O)NC(=O)[C@H](Cc1c[nH]cn1)NC(=O)[C@H](C)NC(=O)[C@H](CC(C)C)NC(=O)[C@H](CCCNC(N)=O)NC(=O)[C@H](CCC(N)=O)NC(=O)[C@@H](NC(=O)[C@@H](NC(=O)[C@@H]1CSSC[C@H](NC(=O)[C@@H](N)CCCCN)C(=O)N[C@@H](CC(N)=O)C(=O)N[C@@H]([C@@H](C)O)C(=O)N[C@@H](C)C(=O)N[C@@H]([C@@H](C)O)C(=O)N1)[C@@H](C)O)C(C)C)C(=O)N[C@@H](Cc1ccc(O)cc1)C(=O)N[C@@H](CCC(N)=O)C(=O)N[C@@H](Cc1ccccc1)C(=O)N[C@H](C(=O)N[C@@H](CC(=O)O)C(=O)N[C@@H](CCCCN)C(=O)N[C@@H](CC(=O)O)C(=O)N[C@@H](CCCCN)C(=O)N[C@@H](CC(=O)O)C(=O)N[C@@H](CC(N)=O)C(=O)N[C@H](C(=O)N1CCC[C@H]1C(=O)N1CCC[C@H]1C(=O)N[C@H](C(=O)N[C@@H](CC(N)=O)C(=O)N[C@H](C(=O)NCC(=O)N[C@@H](CO)C(=O)N[C@@H](CC(N)=O)C(=O)NCC(=O)N1C[C@H](O)C[C@H]1C(N)=O)C(C)C)[C@@H](C)O)C(C)C)[C@@H](C)O` [compound 254] (H-KCNTATCTVQ[Cit]LAHQIYQFTDKDKDNVPPTNVGSNG[Hyp]-NH2; disulfide 2-7), the EC50 is 0.006 nM on hAMY3 receptor and over 5000 nM on hAM1 receptor. In series [1], the “Max ThT signal (%)” value is recorded as 12.050%.

For `CC[C@H](C)[C@H](NC(=O)[C@H](CCC(N)=O)NC(=O)[C@H](Cc1c[nH]cn1)NC(=O)[C@H](C)NC(=O)[C@H](CC(C)C)NC(=O)[C@H](CCCNC(N)=O)NC(=O)[C@H](CCC(N)=O)NC(=O)[C@@H](NC(=O)[C@@H](NC(=O)[C@@H]1CSSC[C@H](NC(=O)[C@@H](N)CCCCN)C(=O)N[C@@H](CC(N)=O)C(=O)N[C@@H]([C@@H](C)O)C(=O)N[C@@H](C)C(=O)N[C@@H]([C@@H](C)O)C(=O)N1)[C@@H](C)O)C(C)C)C(=O)N[C@@H](Cc1ccc(O)cc1)C(=O)N[C@@H](CCC(N)=O)C(=O)N[C@@H](Cc1ccccc1)C(=O)N[C@H](C(=O)N[C@@H](CC(=O)O)C(=O)N[C@@H](CCCCN)C(=O)N[C@@H](CC(=O)O)C(=O)N[C@@H](CCCCN)C(=O)N[C@@H](CC(=O)O)C(=O)N[C@@H](CC(N)=O)C(=O)N[C@H](C(=O)N[C@@H](C)C(=O)N1CCC[C@H]1C(=O)N[C@H](C(=O)N[C@@H](CC(N)=O)C(=O)N[C@H](C(=O)NCC(=O)N[C@@H](CO)C(=O)N[C@@H](CC(N)=O)C(=O)NCC(=O)N1C[C@H](O)C[C@H]1C(N)=O)C(C)C)[C@@H](C)O)C(C)C)[C@@H](C)O` [compound 255] (H-KCNTATCTVQ[Cit]LAHQIYQFTDKDKDNVAPTNVGSNG[Hyp]-NH2; disulfide 2-7; N-terminus assumed), the EC50 is 0.007 nM at hAMY3 receptor and over 5000 nM at hAM1 receptor. Moreover, the “Max ThT signal (%)” value in series [1] was 25.000%.

As for `CC[C@H](C)[C@H](NC(=O)[C@H](CCC(N)=O)NC(=O)[C@H](CCC(=O)O)NC(=O)[C@H](C)NC(=O)[C@H](CC(C)C)NC(=O)[C@H](CCCNC(N)=O)NC(=O)[C@H](C)NC(=O)[C@@H](NC(=O)[C@@H](NC(=O)[C@@H]1CSSC[C@H](NC(=O)[C@@H](N)CCCNC(=N)N)C(=O)N[C@@H](CCC(N)=O)C(=O)N[C@@H]([C@@H](C)O)C(=O)N[C@@H](CO)C(=O)N[C@@H]([C@@H](C)O)C(=O)N1)[C@@H](C)O)C(C)C)C(=O)N[C@@H](C)C(=O)N[C@@H](CCC(N)=O)C(=O)N[C@@H](Cc1ccc(O)cc1)C(=O)N[C@H](C(=O)N[C@@H](CC(=O)O)C(=O)N[C@@H](CCCCN)C(=O)N[C@@H](CC(=O)O)C(=O)N[C@@H](CCCCN)C(=O)N[C@@H](CC(=O)O)C(=O)N[C@@H](CCC(N)=O)C(=O)N[C@H](C(=O)N[C@@H](C)C(=O)N1CCC[C@H]1C(=O)N1CCC[C@H]1C(=O)N[C@H](C(=O)N[C@@H](CC(N)=O)C(=O)N[C@H](C(=O)NCC(=O)N[C@@H](CO)C(=O)N[C@@H](CC(N)=O)C(=O)N[C@@H](CO)C(=O)N1C[C@H](O)C[C@H]1C(N)=O)C(C)C)[C@@H](C)O)C(C)C)[C@@H](C)O` [compound 256] (H-RCQTSTCTVA[Cit]LAEQIAQYTDKDKDQVAPPTNVGSNS[Hyp]-NH2; disulfide 2-7; N-terminus assumed), the half-maximal effective concentration (EC50) at hAMY3 receptor is 0.007 nM; on hAM1 receptor, over 5000 nM. Further, the “Max ThT signal (%)” value in series [1] is recorded as 18.650%.

In the case of `CC[C@H](C)[C@H](NC(=O)[C@H](CCC(N)=O)NC(=O)[C@H](Cc1c[nH]cn1)NC(=O)[C@H](C)NC(=O)[C@H](CC(C)C)NC(=O)[C@H](CCCNC(N)=O)NC(=O)[C@H](CCC(N)=O)NC(=O)[C@@H](NC(=O)[C@@H](NC(=O)[C@@H]1CSSC[C@H](NC(=O)[C@@H](N)CCCCN)C(=O)N[C@@H](CC(N)=O)C(=O)N[C@@H]([C@@H](C)O)C(=O)N[C@@H](C)C(=O)N[C@@H]([C@@H](C)O)C(=O)N1)[C@@H](C)O)C(C)C)C(=O)N[C@@H](Cc1ccc(O)cc1)C(=O)N[C@@H](CCC(N)=O)C(=O)N[C@@H](Cc1ccccc1)C(=O)N[C@H](C(=O)N[C@@H](CC(=O)O)C(=O)N[C@@H](CCCCN)C(=O)N[C@@H](C)C(=O)N[C@@H](CCCCN)C(=O)N[C@@H](CC(=O)O)C(=O)N[C@@H](CC(N)=O)C(=O)N[C@H](C(=O)N[C@@H](C)C(=O)N1CCC[C@H]1C(=O)N1CCC[C@H]1C(=O)N[C@H](C(=O)N[C@@H](CC(N)=O)C(=O)N[C@H](C(=O)NCC(=O)N[C@@H](CO)C(=O)N[C@@H](CC(N)=O)C(=O)NCC(=O)N1C[C@H](O)C[C@H]1C(N)=O)C(C)C)[C@@H](C)O)C(C)C)[C@@H](C)O` [compound 258] (H-KCNTATCTVQ[Cit]LAHQIYQFTDKAKDNVAPPTNVGSNG[Hyp]-NH2; disulfide 2-7; N-terminus assumed), the EC50 on hAMY3 receptor is 0.01 nM; at hAM1 receptor it was over 5000 nM. Besides, in series [1], the “Max ThT signal (%)” value is reported as 32.700%.

Consider `CC[C@H](C)[C@H](NC(=O)[C@H](CCC(N)=O)NC(=O)[C@H](Cc1c[nH]cn1)NC(=O)[C@H](C)NC(=O)[C@H](CC(C)C)NC(=O)[C@H](CCCNC(N)=O)NC(=O)[C@H](CCC(N)=O)NC(=O)[C@@H](NC(=O)[C@@H](NC(=O)[C@@H]1CSSC[C@H](NC(=O)CN)C(=O)N[C@@H](CCCNC(=N)N)C(=O)N[C@@H]([C@@H](C)O)C(=O)NCC(=O)N[C@@H]([C@@H](C)O)C(=O)N1)[C@@H](C)O)C(C)C)C(=O)N[C@@H](Cc1ccc(O)cc1)C(=O)N[C@@H](CCC(N)=O)C(=O)N[C@@H](Cc1ccccc1)C(=O)N[C@H](C(=O)N[C@@H](CC(=O)O)C(=O)N[C@@H](CCCCN)C(=O)N[C@@H](CC(=O)O)C(=O)N[C@@H](CCCCN)C(=O)N[C@@H](CC(=O)O)C(=O)N[C@@H](CC(N)=O)C(=O)N[C@H](C(=O)N[C@@H](C)C(=O)N1CCC[C@H]1C(=O)N[C@@H](CCCNC(=N)N)C(=O)N[C@H](C(=O)N[C@@H](CC(N)=O)C(=O)N[C@H](C(=O)NCC(=O)N1CCC[C@H]1C(=O)N[C@@H](CCC(N)=O)C(=O)NCC(=O)N1C[C@H](O)C[C@H]1C(N)=O)C(C)C)[C@@H](C)O)C(C)C)[C@@H](C)O` [compound 261] (H-GCRTGTCTVQ[Cit]LAHQIYQFTDKDKDNVAPRTNVGPQG[Hyp]-NH2; disulfide 2-7; N-terminus assumed), for which the EC50 was 0.018 nM at hAMY3 receptor and over 5000 nM at hAM1 receptor. The “Max ThT signal (%)” value in series [1] was found to be 22.650%.
